According to patent publication US9045484B2, “Inhibitors of the BMP signaling pathway” (The Brigham and Women's Hospital, Inc., priority 2008, dated 2015):
Counter-ions that a name gives are not always drawn. Like-named read-outs stand apart in the source and are kept apart here. Blank lines part the entries; values can stand above or below the compound they belong to.

Assays:
[1] = tested on: BMP-induced phosphorylation of SMAD1/5/8; test: BMP4-induced phosphorylation of SMAD1/5/8, cytoblot (cellular ELISA); type: cell-based, murine; settings: Mus musculus
Description: Murine pulmonary artery smooth muscle cells were isolated, explanted and cultured as previously described (see […] et al. Am. J. Physiol. Lung Cell Mol. Physiol. 280:[…], 2001) and then grown to confluence in 96 well tissue culture plates. Cells were incubated in serum-free medium for 18 h, and then incubated with recombinant BMP2, BMP4, BMP6, BMP9, GDF5, TGF-β, or Activin A ligands (R&D Systems, Minneapolis, Minn.) at varying concentrations in duplicate for 20 minutes. […] Specificity for BMP-mediated signaling was determined separately using a modification of the cellular ELISA technique assaying for the activation of SMAD2 or SMAD3 via TGF-β, or Activin A. A corresponding IC50 was calculated for the effects of these compounds upon those signaling pathways.

[2] = Plasma pharmacokinetics after single bolus intraperitoneal administration; type: in vivo, C57B16 mice; settings: C57B16, mouse, Table 3, male mice, IP 3 mg/kg; for Tmax: read-out: tmax
Description: (§1) The pharmacokinetics of 13.HCl was evaluated after a single bolus intraperitoneal administration (3 mg/kg) in male and female C57B16 mice on a commercial rodent diet and water ad libitum prior to the study. Compound plasma levels were determined by LC-MS/MS and the pharmacokinetic parameters were determined using WinNonlin software (Pharsight Co., Mountain View, Calif.). Dosing solutions (0.6 mg/mL) were prepared in a vehicle comprising 2% hydropropyl-β-cyclodextrin in phosphate-buffered saline (PBS). Each time point (pre-dose, 5, 10, 15, 30, 60, 120, 240, 480, 1440 min post-dose) was dosed as N=3/sex. Each blood sample was collected via cardiac puncture after euthanasia with CO2 and placed in chilled tubes containing sodium heparin. Samples were centrifuged at 4° C. at 13,000 rpm for 5 min followed by extracted with acetonitrile and then analyzed.
The pharmacokinetics of 44.HCl and 37.HCl were evaluated after a single bolus intraperitoneal administration (3 mg/kg) in male C57B16 mice on a commercial rodent diet and water ad libitum prior to the study. Compound plasma levels were determined by LC-MS/MS and the pharmacokinetic parameters were determined using WinNonlin software (Pharsight Co., Mountain View, Calif.). Dosing solutions (0.6 mg/mL) were prepared in a vehicle comprising 2% hydropropyl-β-cyclodextrin in phosphate-buffered saline (PBS). Each time point (pre-dose, 5, 10, 15, 30, 60, 120, 240, 480, 1440 min post-dose) was dosed as
N=3/sex. Each blood sample was collected via cardiac puncture after euthanasia with CO2 and placed in chilled tubes containing sodium heparin. Samples were centrifuged at 4° C. at 13,000 rpm for 5 min followed by extracted with acetonitrile and then analyzed.

[3] = Plasma pharmacokinetics after single oral administration; type: in vivo; settings: C57B16, mouse, oral 3 mg/kg
Description: as §1, with “compound 70” for “13.HCl”, “oral” for “bolus intraperitoneal”, “male” for “male and female”, “(pre-dose,” for “(pre-dose, 5, 10,”, “360, 480 and” for “480,”, “N=3.” for “N=3/sex.”
as §1, with “oral” for “bolus intraperitoneal”, “male” for “male and female”, “(pre-dose,” for “(pre-dose, 5, 10,”, “360, 480 and” for “480,”, “N=3.” for “N=3/sex.”

[4] = tested on: IL6-induced hepcidin expression in HepG2 cells; test: IL6-induced hepcidin expression in HepG2 hepatoma cells; type: cell-based, human; settings: pretreatment; data not shown
Description: HepG2 cells pretreated with compound 13 (5-625 nM) or vehicle for 30 min. were incubated with IL6 (50 ng/mL) for 1.5 h. Cells were harvested, and hepcidin mRNA and 18S rRNA levels were measured by quantitative RT-PCR. Changes in gene expression were normalized to 18S ribosomal RNA levels using the relative cycle threshold method.

[5] = tested on: PDGFR-mediated signaling; test: PDGF-induced AKT phosphorylation, cellular ELISA in PaSMCs; type: cell-based, murine; settings: Mus musculus, PASMC; compounds 10 min, then PDGF 30 min; FIG. 2; read-out: functional IC50, PDGF-induced AKT phosphorylation
Description: To test the relative effects of dorsomorphin and structurally-related compounds upon PDGFR-mediated signaling, PDGF-induced AKT phosphorylation was measured by cellular ELISA via the detection of phospho-AKT in PaSMCs treated with compounds for 10 min. followed by PDGF for 30 min.

[6] = Serum iron levels (Ferene S assay) after IP injections; type: in vivo, C57BL/6 mice; settings: two IP injections 10 mg/kg 12 h apart; 24 h after first injection
Description: In C57BL/6 mice, two IP injections of dorsomorphin (10 mg/kg) 12 h apart increased serum iron levels, measured by the Ferene S assay (ThermoFisher Scientific, Waltham, Mass.) measured 24 h after first injection by over 60%. (see FIG. 4; n=8 vehicle, n=7 dorsomorphin, P<0.001). Results are expressed as mean±SD.

[7] = Microsomal stability in pooled mouse liver microsomes; type: in vitro ADME; settings: 0.5 mg/mL microsome protein, 1 mM NADPH
Description: Test compound (3 μM final concentration) along with 0.5 mg/mL microsome protein and 1 mM NADPH was incubated for 0, 5, 15, 30 and 60 min. Incubation of test compound and microsomes in the absence of NADPH served as a negative control. The samples were quenched with methanol and centrifuged for 20 min at 2500 rpm to precipitate proteins. Sample supernatants were analyzed (N=3) by LC/MS. The ln peak area ratio (compound peak area/internal standard peak area) was plotted against time and the slope of the line determined to give the elimination rate constant [k=(−1)(slope)]. The half life (t1/2 in minutes) and the in vitro intrinsic clearance (CLint in μL/min/mg protein) values were calculated according to the following equations, where V=incubation volume in μL/mg protein: […]

[8] = approximate IC50, cellular ELISA, murine pulmonary artery smooth muscle cells, read-out: IC50 for inhibition of BMP-induced phosphorylation of SMAD1/5/8

SMILES: OC1(c2ccc(-c3cnc4c(-c5ccnc6ccccc56)cnn4c3)cc2)CCNCC1 [Compound 70, 4-(4-(3-(quinolin-4-yl)pyrazolo[1,5-a]pyrimidin-6-yl)phenyl)piperidin-4-ol]
AUC(0-inf) ([3]; Table 4, male mice): 143 ng·h/mL
Cmax ([3]; Table 4, male mice): 100 nM
Tmax ([3]; Table 4, male mice): 0.25 h
half-life ([3]; Table 4, male mice): 1.7 h

SMILES: C[C@@H]1C[C@@H]([C@H](O)CC2CC(=O)NC(=O)C2)C(=O)[C@@H](C)C1 [cycloheximide, reference compound]
ability of IL6 to induce hepcidin gene expression [4]: did not block the ability of IL6 to induce hepcidin gene expression

SMILES: Cl.c1ccc2c(-c3cnn4cc(-c5ccc(N6CCNCC6)cc5)cnc34)ccnc2c1 [13•HCl, 4-[6-(4-piperazin-1-ylphenyl)pyrazolo[1,5-a]pyrimidin-3-yl]quinoline hydrochloride salt]
AUC(0-inf) ([3]; Table 5, male mice): 919 ng·h/mL
Cmax ([3]; Table 5, male mice): 690 nM
Tmax ([3]; Table 5, male mice): 1 h
half-life ([3]; Table 5, male mice): 1.1 h

SMILES: COC1(c2ccc(-c3cnc4c(-c5ccnc6ccccc56)cnn4c3)cc2)CCNCC1 [44•HCl, 4-(6-(4-(4-methoxypiperidin-4-yl)phenyl)pyrazolo[1,5-a]pyrimidin-3-yl)quinoline]
AUC(0-inf) [2]: 583 ng·h/mL
Cmax [2]: 660 nM
half-life [2]: 1.4 h
Tmax [2]: < 0.25 h

SMILES: c1cc(-c2cnn3cc(-c4ccc(OCCN5CCCCC5)cc4)cnc23)ccn1 [Dorsomorphin, reference compound]
IC50 ([1]; FIG. 1, approximate, read-out: functional IC50, BMP4-induced SMAD1/5/8 phosphorylation): ~400 nM
IC50 [5]: ~500 nM
increase of serum iron levels [6]: over 60%
half-life at 3 μM ([7]; read-out: half-life (t1/2) in mouse liver microsomes): 0.173 h
microsomal CLint at 3 μM ([7]; read-out: intrinsic clearance (CLint) in mouse liver microsomes): 133 ± 6.6 µL/min/mg

SMILES: COc1ccc(-c2cnc3c(-c4ccncc4)cnn3c2)cc1 [4-OMe-Ph, 4-Py, H, N, N, 6-(4-Methoxyphenyl)-3-pyridin-4-yl-pyrazolo[1,5-a]pyrimidine]
IC50 [1, 8]: > 1000 nM

Other lines, results leading:

IC50 [1, 8]: > 20000 nM
SMILES: COC(=O)c1cc(-c2ccnc3ccccc23)c2ncc(-c3ccc(OC)cc3)cn12 [4-OMe-Ph, 4-quinolinyl, H, N, CCO2Me, Methyl 3-(4-methoxyphenyl)-8-quinolin-4-yl-pyrrolo[1,2-a]pyrimidine-6-carboxylate]

AUC(0-inf) [2]: 207 ng·h/mL
Cmax [2]: 290 nM
half-life [2]: 2.2 h
Tmax [2]: < 0.25 h
SMILES: c1ccc2c(-c3cnn4cc(-c5ccc(N6CCNCC6)cc5)ccc34)ccnc2c1 [37•HCl, 4-[6-(4-Piperazin-1-ylphenyl)pyrazolo[1,5-a]pyridin-3-yl]-quinoline]

IC50 [1, 8]: < 500 nM
SMILES: COc1ccc(-c2ccc3c(-c4ccnc5ccccc45)cnn3c2)cc1 [4-OMe-Ph, 4-quinolinyl, H, CH, N, 4-[6-(4-Methoxyphenyl)pyrazolo[1,5-a]pyridin-3-yl]quinoline]

IC50 [1, 8]: > 20000 nM
SMILES: COc1ccc(-c2cnc3c(-c4ccnc5ccccc45)ccn3c2)cc1 [4-OMe-Ph, 4-quinolinyl, H, N, CH, 4-[3-(4-Methoxyphenyl)pyrrolo[1,2-a]pyrimidin-8-yl]quinoline]
